According to ChEMBL document CHEMBL1122015, “Rigid analogues of dopamine: synthesis and interaction of 6-exo- and 6-endo-(3',4'-dihydroxyphenyl)-2-azabicyclo[2.2.2]octanes with dopamine uptake sites and receptors” (J Med Chem, 1982):

Assays:
Rattus norvegicus [1] = organism: Rattus norvegicus; assay: Effect on DA-sensitive adenylate cyclase activity in rat striatal homogenates; assay type: functional
Rattus norvegicus [2] = organism: Rattus norvegicus; assay: Inhibition of the uptake of [3H]DA by corpus striatum synaptosomes of reserpine-pretreated rat; assay type: functional
Rattus norvegicus [3] = organism: Rattus norvegicus; assay: Reported to half-maximally effective concentration of reserpine-pretreated rat

SMILES	Activity (Rattus norvegicus [1]) [%]	IC50 (Rattus norvegicus [2]) [µM]	also measured
NCCc1ccc(O)c(O)c1	210	–	–
N[C@H]1C[C@@H]1c1ccccc1 (racemic)	–	–	IC50 (Rattus norvegicus [2]; Rattus norvegicus, Corpus striatum): 0.9 µM; IC50 (Rattus norvegicus [3]): 1.7 µM
Oc1ccc([C@H]2CC3CC[C@H]2NC3)cc1O (relative stereo) [listing 1 of 2 here]	–	32	–
Oc1ccc([C@H]2CC3CC[C@H]2NC3)cc1O (relative stereo) [listing 2 of 2 here]	93	–	–
Oc1ccc([C@H]2CC3CC[C@H]2NC3)cc1O (stereo in doubt; 1) [listing 1 of 2 here]	–	110	–
Oc1ccc([C@H]2CC3CC[C@H]2NC3)cc1O (stereo in doubt; 1) [listing 2 of 2 here]	117	–	–
